Like-named read-outs stand apart in the source and are kept apart here.
How the values were obtained:
Format in all cases: cell-based
[1] = target: T1, protein kinases (human kinome) (Homo sapiens, UniProt O00444)
T1 sequence (O00444 1-970): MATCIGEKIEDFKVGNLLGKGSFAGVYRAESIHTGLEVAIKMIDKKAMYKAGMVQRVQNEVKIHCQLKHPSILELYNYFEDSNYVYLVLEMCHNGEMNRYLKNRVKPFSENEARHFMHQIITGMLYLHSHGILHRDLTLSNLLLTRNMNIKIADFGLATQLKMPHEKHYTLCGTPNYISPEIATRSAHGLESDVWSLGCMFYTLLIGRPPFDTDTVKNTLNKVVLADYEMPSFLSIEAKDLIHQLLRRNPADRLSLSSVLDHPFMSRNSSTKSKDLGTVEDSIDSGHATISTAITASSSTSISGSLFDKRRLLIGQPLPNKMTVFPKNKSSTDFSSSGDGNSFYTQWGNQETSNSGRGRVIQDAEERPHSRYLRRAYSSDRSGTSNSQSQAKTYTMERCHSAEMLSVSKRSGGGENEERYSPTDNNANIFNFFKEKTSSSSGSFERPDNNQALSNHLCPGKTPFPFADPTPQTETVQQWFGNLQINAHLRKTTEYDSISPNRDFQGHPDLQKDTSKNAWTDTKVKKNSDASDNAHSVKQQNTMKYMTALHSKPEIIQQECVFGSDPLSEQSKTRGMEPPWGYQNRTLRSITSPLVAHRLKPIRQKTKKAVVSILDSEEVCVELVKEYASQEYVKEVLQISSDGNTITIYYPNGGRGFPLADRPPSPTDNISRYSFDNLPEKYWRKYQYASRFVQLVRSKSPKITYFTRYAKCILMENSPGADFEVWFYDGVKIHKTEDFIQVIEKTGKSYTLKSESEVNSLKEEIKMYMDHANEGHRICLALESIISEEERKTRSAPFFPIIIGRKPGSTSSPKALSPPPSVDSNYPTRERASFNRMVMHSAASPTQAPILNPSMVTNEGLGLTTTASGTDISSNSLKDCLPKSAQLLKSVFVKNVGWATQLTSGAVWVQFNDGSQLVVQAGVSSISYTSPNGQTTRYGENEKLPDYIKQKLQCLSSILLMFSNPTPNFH

[2] = target: T2, protein kinases (human kinome) (Homo sapiens, UniProt P42680); details: TEC (P42680)
T2 sequence (P42680 1-631): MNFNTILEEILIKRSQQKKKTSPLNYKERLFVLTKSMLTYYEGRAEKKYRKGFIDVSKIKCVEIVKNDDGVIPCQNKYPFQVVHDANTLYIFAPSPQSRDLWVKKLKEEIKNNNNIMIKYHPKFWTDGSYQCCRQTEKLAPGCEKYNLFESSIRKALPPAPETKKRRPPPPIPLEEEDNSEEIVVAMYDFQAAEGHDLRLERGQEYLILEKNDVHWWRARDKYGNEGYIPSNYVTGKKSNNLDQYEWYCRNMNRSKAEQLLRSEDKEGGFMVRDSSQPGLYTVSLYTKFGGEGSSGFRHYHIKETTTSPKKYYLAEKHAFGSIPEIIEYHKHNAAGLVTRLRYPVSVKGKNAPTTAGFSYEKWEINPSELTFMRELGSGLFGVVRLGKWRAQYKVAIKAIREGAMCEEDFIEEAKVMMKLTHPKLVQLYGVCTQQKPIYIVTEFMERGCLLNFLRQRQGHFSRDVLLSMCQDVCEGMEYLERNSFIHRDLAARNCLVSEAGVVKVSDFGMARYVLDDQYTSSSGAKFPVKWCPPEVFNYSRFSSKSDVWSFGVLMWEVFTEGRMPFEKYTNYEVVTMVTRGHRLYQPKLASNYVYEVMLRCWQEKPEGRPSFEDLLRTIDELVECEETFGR

[3] = target: protein kinases (human kinome) (Homo sapiens, UniProt P23443)
Chain of protein kinases (human kinome) (Homo sapiens, UniProt P23443) (P23443 whole entry): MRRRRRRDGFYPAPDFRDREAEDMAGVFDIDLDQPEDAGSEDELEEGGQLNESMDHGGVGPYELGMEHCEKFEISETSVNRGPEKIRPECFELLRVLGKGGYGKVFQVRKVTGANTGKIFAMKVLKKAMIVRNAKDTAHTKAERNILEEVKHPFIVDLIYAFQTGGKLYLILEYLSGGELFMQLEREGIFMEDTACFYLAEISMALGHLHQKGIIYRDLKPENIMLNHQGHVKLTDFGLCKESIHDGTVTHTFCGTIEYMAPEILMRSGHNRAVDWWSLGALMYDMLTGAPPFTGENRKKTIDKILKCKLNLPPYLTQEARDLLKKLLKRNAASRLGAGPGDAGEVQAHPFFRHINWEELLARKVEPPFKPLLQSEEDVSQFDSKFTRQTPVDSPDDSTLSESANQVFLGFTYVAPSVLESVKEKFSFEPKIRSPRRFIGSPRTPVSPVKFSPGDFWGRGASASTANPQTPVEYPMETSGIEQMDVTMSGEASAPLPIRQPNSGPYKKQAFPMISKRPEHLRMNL

[4] = target: T3, protein kinases (human kinome) (Homo sapiens, UniProt Q08881); details: for logFC: ITK (Q08881) protein abundance, degrader vs DMSO, down
T3 sequence (Q08881 1-620): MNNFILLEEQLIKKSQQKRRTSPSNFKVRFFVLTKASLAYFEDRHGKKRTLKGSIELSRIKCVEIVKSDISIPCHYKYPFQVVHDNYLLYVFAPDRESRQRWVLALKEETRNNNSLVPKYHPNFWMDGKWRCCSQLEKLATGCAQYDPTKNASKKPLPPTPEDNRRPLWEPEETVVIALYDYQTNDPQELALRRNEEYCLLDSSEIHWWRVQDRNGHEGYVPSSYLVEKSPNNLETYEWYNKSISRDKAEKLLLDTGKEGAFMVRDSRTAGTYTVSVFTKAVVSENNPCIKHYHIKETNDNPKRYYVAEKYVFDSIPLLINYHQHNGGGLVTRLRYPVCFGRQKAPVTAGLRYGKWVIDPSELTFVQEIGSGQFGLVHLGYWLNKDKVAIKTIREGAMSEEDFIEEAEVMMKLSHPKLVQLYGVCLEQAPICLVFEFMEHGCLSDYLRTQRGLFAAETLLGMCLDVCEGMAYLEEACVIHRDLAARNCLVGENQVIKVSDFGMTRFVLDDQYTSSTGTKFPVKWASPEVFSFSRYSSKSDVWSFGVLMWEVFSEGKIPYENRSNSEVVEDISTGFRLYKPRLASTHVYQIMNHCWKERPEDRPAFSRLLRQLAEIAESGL

CC(C)S(=O)(=O)c1ccccc1Nc1nc(Nc2ccc(N3CCN(CCOCCNC(=O)CNc4cccc5c4C(=O)N(C4CCC(=O)NC4=O)C5=O)CC3)cc2)ncc1Cl (centres unmarked) [SK.3.91]
logFC PLK4 ([1]; Accession O00444, experiment wp103, direction down): −1.243
logFC PLK4 ([1]; Accession O00444, experiment wp107, direction down): −1.036
logFC PLK4 ([1]; Accession O00444, experiment wp133, 1 hr, direction down): −0.726
logFC PLK4 ([1]; Accession O00444, experiment wp133, 2 hr, direction down): −1.523
logFC PLK4 ([1]; Accession O00444, experiment wp133, 4 hr, direction down): −2.258
logFC PLK4 ([1]; Accession O00444, experiment wp160, 2 hr, direction down): −0.9266
logFC PLK4 ([1]; Accession O00444, experiment wp160, 4 hr, direction down): −1.169
logFC PLK4 ([1]; PLK4 (O00444), experiment wp133, 1 hr): −0.726
logFC PLK4 ([1]; PLK4 (O00444), experiment wp133, 2 hr): −1.523
logFC PLK4 ([1]; PLK4 (O00444), experiment wp133, 4 hr): −2.258
logFC PLK4 ([1]; PLK4 (O00444), experiment wp160, 2 hr): −0.9266
logFC PLK4 ([1]; PLK4 (O00444), experiment wp160, 4 hr): −1.169
logFC PLK4 (O00444) ([1]; experiment wp103): −1.243
logFC PLK4 (O00444) ([1]; experiment wp107): −1.036
logFC ([2]; experiment wp103): −0.6497
logFC ([2]; experiment wp103, direction down): −0.6497
logFC ([2]; experiment wp107): −1.146
logFC ([2]; experiment wp107, direction down): −1.146
logFC of RPS6KB1 (P23443-1) ([3]; Experiment wp107): −0.4197
logFC ([3]; RPS6KB1 (P23443-1), experiment wp107): −0.4197
logFC ITK (Q08881) ([4]; Experiment wp103): −1.663
logFC ITK (Q08881) ([4]; Experiment wp107): −1.963
logFC ITK (Q08881) ([4]; Experiment wp160, 2 hr): −0.799
logFC ([4]; 2 hr): −0.799
logFC ([4]; 4 hr): −1.783
logFC ITK (Q08881) ([4]; experiment wp016): −2.308
logFC ITK (Q08881) ([4]; experiment wp016, 1 uM): −2.033
logFC ITK (Q08881) ([4]; experiment wp016, 1 uM, direction of change down): −2.033
logFC ITK (Q08881) ([4]; experiment wp016, direction of change down): −2.308
logFC ITK (Q08881) ([4]; experiment wp103, direction of change down): −1.663
logFC ITK (Q08881) ([4]; experiment wp107, direction of change down): −1.963
logFC ITK (Q08881) ([4]; experiment wp133, 1 hr): −0.3741
logFC ITK (Q08881) ([4]; experiment wp133, 1 hr, direction of change down): −0.3741
logFC ITK (Q08881) ([4]; experiment wp133, 2 hr): −0.8321
logFC ITK (Q08881) ([4]; experiment wp133, 2 hr, direction of change down): −0.8321
logFC ITK (Q08881) ([4]; experiment wp133, 4 hr): −1.654
logFC ITK (Q08881) ([4]; experiment wp133, 4 hr, direction of change down): −1.654
logFC ITK (Q08881) ([4]; experiment wp160, 4 hr): −1.783

From US20240269139A1, “COMPOUNDS FOR TARGETED PROTEIN DEGRADATION OF KINASES” (DANA-FARBER CANCER INSTITUTE, INC., priority 2020, published 2024)
